Results on four molecules are retold here after patent US9023789B2, “Amylin analogs and pharmaceutical compositions thereof” (Novo Nordisk A/S, priority 2012, dated 2015).

The nature of data set [1]: ASSAY (III) ThT fibrillation assay for physical stability. It is filed as physicochemical. The method, boiled down: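 Formulations with 1 μM ThT, pH adjusted as required, incubated at 37 °C with 960 rpm orbital shaking; fluorescence (ex 444/em 485 nm) read every 20 min. Fibrillation reported as mean ThT fluorescence ± SD of 4–8 replicates at time points; polypeptide concentration measured by reverse-phase HPLC before and after, post-centrifugation.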

The nature of data set [2]: ASSAY (IV) determination of solubility. It is filed as physicochemical. The gist of the method:
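Polypeptide stock in water ([…]) was mixed 1:1 with 100 mM buffers: glycylglycine at pH 3.0, 4.0, 5.0 and bistrispropane at pH 6.0, 6.5, 7.0, 7.5, 8.0. After 18 hours at room temperature, samples were centrifuged and polypeptide concentration measured by UPLC.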

Data set [3] has as its target T1, rat amylin receptor (rat calcitonin receptor + rat RAMP 3) (Rattus norvegicus, UniProt P32214+Q9JJ73).
T1 construct: expressed in transfected cells; host or cells: BHK tk'ts 13 (transient, FuGENE 6), membranes
T1 sequence (P32214 25-479 isoform P32214-2 limits assumed): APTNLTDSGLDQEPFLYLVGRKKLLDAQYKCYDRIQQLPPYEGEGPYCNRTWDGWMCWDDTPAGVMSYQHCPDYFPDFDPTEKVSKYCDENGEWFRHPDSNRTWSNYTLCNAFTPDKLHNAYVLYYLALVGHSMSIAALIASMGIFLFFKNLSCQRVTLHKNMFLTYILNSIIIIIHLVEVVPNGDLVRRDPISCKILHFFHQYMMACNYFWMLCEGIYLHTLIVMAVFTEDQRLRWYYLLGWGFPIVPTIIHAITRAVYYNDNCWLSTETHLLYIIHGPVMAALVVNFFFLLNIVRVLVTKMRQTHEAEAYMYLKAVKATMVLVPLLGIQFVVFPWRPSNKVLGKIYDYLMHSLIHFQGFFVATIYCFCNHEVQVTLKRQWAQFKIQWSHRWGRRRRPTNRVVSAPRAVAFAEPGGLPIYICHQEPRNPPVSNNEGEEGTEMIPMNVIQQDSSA
T1 sequence (Q9JJ73 23-147 partner): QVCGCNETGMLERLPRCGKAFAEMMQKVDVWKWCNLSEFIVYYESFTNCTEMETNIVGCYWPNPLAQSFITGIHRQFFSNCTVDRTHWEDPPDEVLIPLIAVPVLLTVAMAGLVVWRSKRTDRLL
Kind of data set: ASSAY (VI) binding to the rat amylin receptor. The following applies: for IC50: binding to rat amylin receptor, read-out: rAmylin-R bind IC50. The gist of the method: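 Binding to the rat amylin receptor was determined with membrane preparations. The receptor was expressed by transiently transfecting BHK tk′ts 13 cells with rat calcitonin receptor, using FuGENE® 6 (Roche) according to the manufacturer's recommendations. Roughly 48 hours later the cells were harvested and their membranes isolated.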

Setting [4] is: bistrispropane buffer, pH 6.5, read-out: Solubility pH 6.5 Concentration.
Setting [5] is: bistrispropane buffer, pH 7.5, read-out: Solubility pH 7.5 Concentration.
[6] abbreviates: bistrispropane buffer, pH 6.0, read-out: Solubility pH 6.0 Concentration.
The mark [7] stands for this setting: bistrispropane buffer, pH 7.0, read-out: Solubility pH 7.0 Concentration.
The mark [8] stands for this setting: bistrispropane buffer, pH 8.0, read-out: Solubility pH 8.0 Concentration.
The mark [9] stands for this setting: glycylglycine buffer, pH 3.0, read-out: Solubility pH 3.0 Concentration.
[10] abbreviates: glycylglycine buffer, pH 4.0, read-out: Solubility pH 4.0 Concentration.
Setting [11] is: glycylglycine buffer, pH 5.0, read-out: Solubility pH 5.0 Concentration.
Where [12] appears, read: Table 7, rat binding selectivity, rCTR IC50 / rAmylin-R IC50.
Where [13] appears, read: Table 7a (preferred compounds), rat binding selectivity, rCTR IC50 / rAmylin-R IC50.
The mark [14] stands for this setting: ratio of rCTR bind IC50 to rAmylin-R bind IC50.

The term IC50 denotes the concentration needed to halve the response being measured.

Values after ≈ are worked out from the molar mass of the structure shown. Like-named read-outs stand apart in the source and are kept apart here. Numbered stars: 1 amine (or outer) side, 2 acyl side, 3 side chain; on linkers, the order of the positions; unused ones are H or OH. Bridge positions count the residues as written; N and C are the ends. Peptide text beside a SMILES is read from it. * marks the point of attachment. C20 diacid = O=C(O)CCCCCCCCCCCCCCCCCCC(=O)*; γGlu = O=C(O)[C@H](CCC(=O)[*:2])N[*:1]; AEEA = NCCOCCOCC(=O)O

As to `CC[C@H](C)[C@H](NC(=O)[C@H](C)NC(=O)CNC(=O)[C@H](Cc1ccccc1)NC(=O)[C@H](CC(N)=O)NC(=O)[C@@H]1CCCN1C(=O)[C@H](CO)NC(=O)[C@H](CO)NC(=O)[C@H](Cc1c[nH]cn1)NC(=O)[C@H](CCCNC(=N)N)NC(=O)[C@H](CC(C)C)NC(=O)[C@H](Cc1ccccc1)NC(=O)[C@H](CCC(=O)O)NC(=O)[C@H](C)NC(=O)[C@H](CC(C)C)NC(=O)[C@H](CCCNC(=N)N)NC(=O)[C@H](CCC(N)=O)NC(=O)[C@@H](NC(=O)[C@H](C)NC(=O)[C@@H]1CSSC[C@H](NC(=O)[C@H](CCCCN)NC(=O)CC[C@H](NC(=O)CCCCCCCCCCCCCCCCCCC(=O)O)C(=O)O)C(=O)N[C@@H](CC(N)=O)C(=O)N[C@@H]([C@@H](C)O)C(=O)N[C@@H](C)C(=O)N[C@@H]([C@@H](C)O)C(=O)N1)[C@@H](C)O)C(=O)N1CCC[C@H]1C(=O)N[C@@H](CO)C(=O)N[C@@H](CO)C(=O)N[C@H](C(=O)N[C@@H](CC(N)=O)C(=O)N[C@H](C(=O)NCC(=O)N[C@@H](Cc1c[nH]cn1)C(=O)N[C@@H](CC(N)=O)C(=O)N[C@H](C(=O)N[C@@H](Cc1ccc(O)cc1)C(N)=O)[C@@H](C)O)C(C)C)[C@@H](C)O` [Example 17] ({C20 diacid-γGlu}-KCNTATCATQRLAEFLRHSSPNFGAIPSSTNVGHNTY-NH2; disulfide 2-7 (inferred)), the “ThT pH 4.0 lag time (h)” value in data set [1] is reported as 45 h. Besides, the solubility at 18 h is not below 200 µM in data set [2] (setting [4]); 159 µM (≈ 707 µg/mL) in data set [2] (setting [5]); not below 200 µM in data set [2] (setting [6]); not below 200 µM in data set [2] (setting [7]); 154 µM (≈ 685 µg/mL) in data set [2] (setting [8]); not below 200 µM in data set [2] (setting [9]). Further, the solubility at 18 h in data set [2] (setting [10]) and in data set [2] (setting [11]) was not below 200 µM each time. Further, in data set [3] (Table 7), the IC50 came out at 2.71 nM. Moreover, the “Ratio rCT/rAmylin binding” value in data set [3] (setting [12]), in data set [3] (setting [13]) and in data set [3] (setting [14]) was 35.9 each time.
Regarding `CC[C@H](C)[C@H](NC(=O)[C@H](C)NC(=O)CNC(=O)[C@H](Cc1ccccc1)NC(=O)[C@H](CC(N)=O)NC(=O)[C@@H]1CCCN1C(=O)[C@H](CO)NC(=O)[C@H](CO)NC(=O)[C@H](Cc1c[nH]cn1)NC(=O)[C@H](CCCNC(=N)N)NC(=O)[C@H](CC(C)C)NC(=O)[C@H](Cc1ccccc1)NC(=O)[C@H](CCC(=O)O)NC(=O)[C@H](C)NC(=O)[C@H](CC(C)C)NC(=O)[C@H](CCCNC(=N)N)NC(=O)[C@H](CCC(N)=O)NC(=O)[C@@H](NC(=O)[C@H](C)NC(=O)[C@@H]1CSSC[C@H](NC(=O)[C@H](CCCCN)NC(=O)CC[C@H](NC(=O)CCCCCCCCCCCCCCCCCCC(=O)O)C(=O)O)C(=O)N[C@@H](CC(N)=O)C(=O)N[C@@H]([C@@H](C)O)C(=O)N[C@@H](C)C(=O)N[C@@H]([C@@H](C)O)C(=O)N1)[C@@H](C)O)C(=O)N1CCC[C@H]1C(=O)N[C@@H](CO)C(=O)N[C@@H](CO)C(=O)N[C@H](C(=O)N[C@@H](CC(N)=O)C(=O)N[C@H](C(=O)NCC(=O)N[C@@H](CO)C(=O)N[C@@H](Cc1c[nH]cn1)C(=O)N[C@H](C(=O)N[C@@H](Cc1ccc(O)cc1)C(N)=O)[C@@H](C)O)C(C)C)[C@@H](C)O` [Example 18] ({C20 diacid-γGlu}-KCNTATCATQRLAEFLRHSSPNFGAIPSSTNVGSHTY-NH2; disulfide 2-7), the “ThT pH 4.0 lag time (h)” value in data set [1] was 45 h. For the same molecule, the solubility at 18 h in data set [2] (setting [4]) was not below 200 µM; in data set [2] (setting [5]), 122 µM (≈ 539 µg/mL); in data set [2] (setting [6]), not below 200 µM; in data set [2] (setting [7]) it was 177 µM (≈ 782 µg/mL); in data set [2] (setting [8]), 111 µM (≈ 491 µg/mL); in data set [2] (setting [9]), not below 200 µM. For the same molecule, the solubility at 18 h in data set [2] (setting [10]) and in data set [2] (setting [11]) was not below 200 µM throughout. In addition, in data set [3] (Table 7), the IC50 amounted to 0.476 nM. Further, the “Ratio rCT/rAmylin binding” value in data set [3] (setting [12]) and in data set [3] (setting [13]) was 27.3 in each case.
For `CC[C@H](C)[C@H](NC(=O)[C@H](C)NC(=O)CNC(=O)[C@H](Cc1ccccc1)NC(=O)[C@H](CC(N)=O)NC(=O)[C@@H]1CCCN1C(=O)[C@H](CO)NC(=O)[C@H](CO)NC(=O)[C@H](Cc1c[nH]cn1)NC(=O)[C@H](CCCNC(=N)N)NC(=O)[C@H](CC(C)C)NC(=O)[C@H](Cc1ccccc1)NC(=O)[C@H](CCC(=O)O)NC(=O)[C@H](C)NC(=O)[C@H](CC(C)C)NC(=O)[C@H](CCCNC(=N)N)NC(=O)[C@H](CCC(N)=O)NC(=O)[C@@H](NC(=O)[C@H](C)NC(=O)[C@@H]1CSSC[C@H](NC(=O)[C@H](CCCCN)NC(=O)COCCOCCNC(=O)COCCOCCNC(=O)CC[C@H](NC(=O)CCCCCCCCCCCCCCCCCCC(=O)O)C(=O)O)C(=O)N[C@@H](CC(N)=O)C(=O)N[C@@H]([C@@H](C)O)C(=O)N[C@@H](C)C(=O)N[C@@H]([C@@H](C)O)C(=O)N1)[C@@H](C)O)C(=O)N1CCC[C@H]1C(=O)N[C@@H](CO)C(=O)N[C@@H](CO)C(=O)N[C@H](C(=O)N[C@@H](CC(N)=O)C(=O)N[C@H](C(=O)NCC(=O)N[C@@H](CO)C(=O)N[C@@H](CC(N)=O)C(=O)N[C@H](C(=O)N[C@@H](Cc1ccc(O)cc1)C(N)=O)[C@@H](C)O)C(C)C)[C@@H](C)O` [Example 19], the “ThT pH 4.0 lag time (h)” value in data set [1] was found to be 9 h. In addition, the solubility at 18 h in data set [2] (setting [4]), in data set [2] (setting [5]), in data set [2] (setting [6]), in data set [2] (setting [7]), in data set [2] (setting [8]) and in data set [2] (setting [9]) was not below 200 µM throughout. The solubility at 18 h in data set [2] (setting [10]) and in data set [2] (setting [11]) was not below 200 µM each time. For the same molecule, the IC50 in data set [3] (Table 7) stood at 1.02 nM. In addition, the “Ratio rCT/rAmylin binding” value in data set [3] (setting [12]), in data set [3] (setting [13]) and in data set [3] (setting [14]) was 93.6 each time.
On to `CC[C@H](C)[C@H](NC(=O)[C@H](C)NC(=O)CNC(=O)[C@H](Cc1ccccc1)NC(=O)[C@H](CC(N)=O)NC(=O)[C@@H]1CCCN1C(=O)[C@H](CO)NC(=O)[C@H](CO)NC(=O)[C@H](Cc1c[nH]cn1)NC(=O)[C@H](CCCNC(=N)N)NC(=O)[C@H](CC(C)C)NC(=O)[C@H](Cc1ccccc1)NC(=O)[C@H](CCC(=O)O)NC(=O)[C@H](C)NC(=O)[C@H](CC(C)C)NC(=O)[C@H](CCCNC(=N)N)NC(=O)[C@H](CCC(N)=O)NC(=O)[C@@H](NC(=O)[C@H](C)NC(=O)[C@@H]1CSSC[C@H](NC(=O)[C@H](CCCCN)NC(=O)COCCOCCNC(=O)COCCOCCNC(=O)CC[C@H](NC(=O)CCCCCCCCCCCCCCCCCCC(=O)O)C(=O)O)C(=O)N[C@@H](CC(N)=O)C(=O)N[C@@H]([C@@H](C)O)C(=O)N[C@@H](C)C(=O)N[C@@H]([C@@H](C)O)C(=O)N1)[C@@H](C)O)C(=O)N1CCC[C@H]1C(=O)N[C@@H](CO)C(=O)N[C@@H](CO)C(=O)N[C@H](C(=O)N[C@@H](CC(N)=O)C(=O)N[C@H](C(=O)NCC(=O)N[C@@H](CO)C(=O)N[C@@H](CC(N)=O)C(=O)N[C@H](C(=O)N1CCC[C@H]1C(N)=O)[C@@H](C)O)C(C)C)[C@@H](C)O` [Example 20] ({C20 diacid-γGlu-AEEA-AEEA}-KCNTATCATQRLAEFLRHSSPNFGAIPSSTNVGSNTP-NH2; disulfide 2-7), for which, in data set [1], the “ThT pH 4.0 lag time (h)” value came out at 45 h. The solubility at 18 h in data set [2] (setting [4]), in data set [2] (setting [5]), in data set [2] (setting [6]), in data set [2] (setting [7]), in data set [2] (setting [8]) and in data set [2] (setting [9]) was not below 200 µM throughout. Further, the solubility at 18 h in data set [2] (setting [10]) and in data set [2] (setting [11]) was not below 200 µM each time. Besides, the “Ratio rCT/rAmylin binding” value in data set [3] (setting [12]) is reported as 6.4.
